From article PMC11363325, “A Novel Prodrug Strategy Based on Reversibly Degradable Guanidine Imides for High Oral Bioavailability and Prolonged Pharmacokinetics of Broad-Spectrum Anti-influenza Agents” (ACS Central Science, 2024)
Like-named read-outs stand apart in the source and are kept apart here.

Legend:
[1] = set-up: method as in Buss, J. L.; Hasinoff, B. B. J. Mol. Model. 2001, 7, 438–444; settings: amine-based imides; ref Buss, J. L.; Hasinoff, B. B. J. Mol. Model. 2001, 7, 438–444; cited from earlier work
in vitro [2] = experiment: in vitro
[3] = system: A/Puerto Rico/8/1934 (PR8; H1N1); experiment: microbe, parasite or virus in culture; settings: Influenza A virus, MDCK
[4] = system: A/Hong Kong/8/1968 (HK; H3N2); experiment: microbe, parasite or virus in culture; settings: Influenza A virus, H3N2, MDCK
B/Lee/1940 (Lee) = experiment: microbe, parasite or virus in culture; settings: Influenza B virus, MDCK
physchem [5] = assay type: physicochemical
physchem [6] = assay type: physicochemical; settings: pH 7.4
in vitro [7] = assay type: in vitro ADME; settings: PAMPA
Method: To assess this hypothesis, we conducted the parallel artificial membrane permeability assay (PAMPA) for simulating passive transcellular permeation.[41]
Supplemental Experimental Procedures
In vitro Parallel Artificial Membrane Permeability Assay (PAMPA) […]
evaluated using Parallel Artificial Membrane Permeability Assay Kit (PAMPA-096). Each prodrug and the supplied permeability controls were dissolved in DMSO at the concentration of 10 mM. Then 25 μL of each prodrug solution was mixed with 475 μL of 50 mM sodium phosphate buffer (pH 6.5) to be used as the test solution. GOC/HPMCP and OSC-GCDI/HPCMP particles are dissolved in 50 mM sodium phosphate buffer (5% DMSO, pH 6.5) to achieve a final concentration of 200 µM. In the acceptor plate, 300 μL of 50 mM sodium phosphate buffer (pH 7.4) was added. Subsequently, before adding 200 μL of each test solution to the donor plate, 5 μL of 4% lecithin in dodecane was directly applied to the well membrane of the donor plate. Donor plate was carefully placed into acceptor plate and incubate at r.t. for 16 – 24 h. Donor plate was removed and each solution was collected and filtered by a PVDF filter (0.20 μm pore size). The total prodrug concentration in each plate was determined by HPLC analysis.
In the case of OSC-GCDI(P), partial degradation occurred due to the instability of OSC-GCDI(P) in the buffer. Therefore, the collected solution was further incubated in a 1 M KOH solution for complete hydrolysis. Then, the concentration of GOC was quantified instead.

[8] = In vitro microsomal stability; assay type: in vitro ADME, rat; settings: for half-life at 100 μM: liver microsomes; for CLint (intrinsic clearance): rat
Method: In vitro microsomal stability
Sprague Dawley rat microsomes were obtained from GibcoTM. NADPH was purchased from Sigma-Aldrich (Munich, Germany). Liver microsomes at 0.5 mg/mL concentration (final volume of 200 μL) were incubated in phosphate buffer (pH 7.4), containing 3 mM MgCl2. OSC-GCDI prodrug was dissolved in DMSO to be 40 mM concentration, then each prodrug solution was mixed with prepared buffer to achieve a final concentration of 100 μM (0.25% DMSO). Test compounds were incubated at 37 °C and started by the addition of the 1mM NADPH as cofactor. The samples were taken at 0, 30, 60, and 90 min. The reaction was terminated by addition of ice-cold acetonitrile/methanol (1:1, v/v). After collection, samples were centrifuged (10 min, 16,000 rpm), then the centrifuged supernatant was directly analyzed by using HPLC analysis. Metabolic half-time (t1/2) was calculated by using the equation of first order

[9] = cited from earlier work
[10] = Stability of OSC-GCDIs in phosphate buffers; assay type: physicochemical
[11] = Stability of OSC-GCDIs and GOC release in BALB/c serum; assay type: in vitro ADME; settings: mouse; for GOC released: 200 μM
Method: (§1) Stability of OSC-GCDIs in serum
Stability of the GCDI prodrugs were examined by incubating prodrugs in human and BALB/c serum at 37 °C and 200 μM final concentration. Briefly, each prodrug was dissolved in DMSO to be 20 mM concentration, then 10 μL of each prodrug solution was mixed with 990 μL of serum. At different time intervals, 100 μL of the samples were taken and mixed with 100 μL of MeCN. Samples were centrifuged at 14,000 rpm for 10 min at 4 °C and the supernatant was immediately frozen (−80 °C). After thawing and shaking, the samples were filtered using a polytetrafluoroethylene (PTFE) filter (0.20 μm pore size) […]
Release profiles of GOC from the OSC -GCDI prodrugs conjugated to human serum albumin OSC-GCDIs were dissolved in Dulbecco ’s Phosphate-Buffered Saline (DPBS) containing HSA (20 mg/mL) to be concentration of 1 mM, then the mixture was shaken for 10 min at 37 °C. Unbound OSC-GCDIs were removed by washing twice with DPBS using Vivaspin 500 ultrafiltration units (10 kDa cutoff).
Following centrifugation, the samples were redissolved in 1 mL DPBS. Before incubation at 37 °C, 50 µL sample was taken and mixed with 50 µL of 1 M KOH in m ethanol solution to completely hydrolyze the conjugates and determine the initial drug concentration bound to HSA. Subsequently, the samples were incubated at 37 °C and after 1, 2, 4, 24, and 72 h incubation, 50 µL of the samples were taken and mixed with 50 µL MeCN. Then, the concentration of the released GOC was quantified by HPLC. […]

[12] = Stability of OSC-GCDIs in human serum; assay type: in vitro ADME; settings: 200 μM prodrug, 37 °C
Method: as §1
Stability of the GCDI prodrugs were examined by incubating prodrugs in human and BALB/c serum at 37 °C and 200 μM final concentration. Briefly, each prodrug was dissolved in DMSO to be 20 mM concentration, then 10 μL of each prodrug solution was mixed with 990 μL of serum. At different time intervals, 100 μL of the samples were taken and mixed with 100 μL of MeCN. Samples were centrifuged at 14,000 rpm for 10 min at 4 °C and the supernatant was immediately frozen (−80 °C). After thawing

[13] = authors' response to reviewers, no reference given; cited from earlier work
[14] = biological target: human serum albumin (HSA) (Homo sapiens, UniProt P02768); experiment: Albumin binding of OSC-GCDIs (MALDI-TOF MS); settings: MALDI-TOF MS of trypsin-digested HSA
Method: Albumin binding of OSC-GCDIs
OSC-GCDI(P) (0.2 mg/mL or 10 mg/mL) was mixed with HSA (1 mg/mL) in 50 mM Tris -HCl buffer (pH 6.8). The sample was shaken for 20 min at room temperature. Unbound OSC-GCDI(P) was removed by washing three times with distilled water (DW) using Vivaspin 500 ultrafiltration units (10 kDa cutoff).
Following centrifugation, the HSA samples were placed in the condition of 8 M urea, 50 mM Tris-HCl (pH 6.8), and 5 mM DTT at 37 °C for 60 min. Then, 50 mM Tris-HCl (pH 6.8) was added until the urea concentration was less than 1 M. Trypsin Gold was then added to achieve a final protease-to-protein ratio of 1:20 (w/w). The sample was incubated at 37 °C for 60 min. The mass-to-charge ratio of the digested sample was measured by MALDI-TOF (Matrix -Assisted Laser Desorption/Ionization Time -of-Flight) MS using α-cyano-4-hydroxycinnamic acid as the matrix. […]

[15] = mice, oral, non-formulated prodrug
[16] = sodium phosphate buffer, pH 2, phosphate buffer pH 2.0, 37 °C, read-out: T1/2
[17] = sodium phosphate buffer, pH 6.5, phosphate buffer pH 6.5, 37 °C, read-out: T1/2
[18] = sodium phosphate buffer, pH 7.4, phosphate buffer pH 7.4, 37 °C, read-out: T1/2
[19] = sodium phosphate buffer, pH 8, phosphate buffer pH 8.0, 37 °C, read-out: T1/2
[20] = BALB/c serum, 200 μM prodrug, 37 °C, read-out: T1/2
[21] = Sprague Dawley, pH 7.4, rat liver microsome, 100 μM, 37 °C

Chain of human serum albumin (HSA) (P02768 25-609): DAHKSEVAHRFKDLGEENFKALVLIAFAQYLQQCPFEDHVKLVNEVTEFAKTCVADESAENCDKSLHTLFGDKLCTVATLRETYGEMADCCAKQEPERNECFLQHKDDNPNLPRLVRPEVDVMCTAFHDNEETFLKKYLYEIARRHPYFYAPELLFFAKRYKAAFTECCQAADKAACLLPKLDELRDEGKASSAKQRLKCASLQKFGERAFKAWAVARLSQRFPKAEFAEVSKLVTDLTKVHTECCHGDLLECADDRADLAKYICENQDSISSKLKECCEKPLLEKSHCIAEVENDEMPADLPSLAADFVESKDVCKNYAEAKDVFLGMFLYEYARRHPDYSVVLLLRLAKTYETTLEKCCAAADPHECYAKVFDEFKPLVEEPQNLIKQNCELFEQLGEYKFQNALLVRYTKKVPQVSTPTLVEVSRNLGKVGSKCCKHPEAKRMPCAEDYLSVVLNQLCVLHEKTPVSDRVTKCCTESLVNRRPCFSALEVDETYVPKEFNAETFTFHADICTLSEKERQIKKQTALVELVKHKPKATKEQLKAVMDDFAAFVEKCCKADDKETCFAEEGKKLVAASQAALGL

Row | Compound | EC50 [3] [nM] | EC50 [4] [nM] | EC50 (B/Lee/1940 (Lee)) [nM] | logP (physchem [5]) | logD (physchem [6]) | Papp at 500 μM (in vitro [7]) [×10⁻⁶ cm/s] | half-life at 100 μM [10, 16] [h] | half-life at 100 μM [10, 17] [h] | half-life at 100 μM [10, 18] [h] | half-life at 100 μM [10, 19] [h] | half-life at 200 μM [11, 20] [h] | half-life at 200 μM [12] [h] | CC50 at 3 days (in vitro [2]; dog) [nM] | other results
1 | O=C1NC(=O)c2ccccc21 [phthalimide] | – | – | – | – | – | – | – | – | – | – | – | – | – | hydrolysis rate compared to succinimide [1]: 100 times faster
2 | NC12CC3CC(CC(C3)C1)C2 [AMT, Amantadine, reference compound] | > 100000 | 1560 ± 400 | > 100000 | – | – | – | – | – | – | – | – | – | – | CC50 at 3 days (in vitro [2]): > 100000 nM
3 | CCC(CC)O[C@@H]1C=C(C(=O)O)C[C@H](NC(=N)N)[C@H]1NC(C)=O [GOC, guanidino oseltamivir carboxylate, reference compound] | 5 ± 1 | < 5 | 700 ± 150 | – | – | – | – | – | – | – | – | – | – | logP (physchem [5]; octanol–water, room temperature, read-out: log P): -1.35; logD (physchem [6]; octanol-phosphate buffer, read-out: log D7.4): -1.49; Effective permeability Pe (in vitro [7]): almost negligible; half-life ([8]; Sprague Dawley, microsomes, pH 7.4, rat liver microsome, 100 μM, 37 °C): 116 h; remaining GOC ([8]; rat liver microsomes, after 90-min incubation): 98.8%; CC50 (in vitro [2]; dog): > 100000 nM; oral bioavailability ([9]; in vivo, po): < 4%
4 | CCC(CC)O[C@@H]1C=C(C(=O)O)C[C@H](N=C(N2C(=O)CC(C)(C)C2=O)N2C(=O)CC(C)(C)C2=O)[C@H]1NC(C)=O [OSC-GCDI(D)] | 70 ± 10 | 30 ± 10 | 13700 ± 2850 | 0.98 | -0.32 | 1.66 | > 24 | > 24 | 8.25 | 2.69 | 2.63 | 1.95 | > 100000 | half-life at 100 μM ([10]; buffer, pH 7.4, half-life): > 8 h; T1/2 ([10]; phosphate buffer pH 7.4, 37 °C): 8.252 h; half-life at 200 μM ([11]; BALB/c, serum): > 1.67 h; half-life at 100 μM [8, 21]: 6.42 h; CLint (intrinsic clearance) ([8]; microsomes): 3.60
5 | O=C1C=CC(=O)N1 [maleimide] | – | – | – | – | – | – | – | – | – | – | – | – | – | hydrolysis rate compared to succinimide [1]: 300 times faster
6 | CCC(CC)O[C@@H]1C=C(C(=O)O)C[C@H](N=C(N2C(=O)[C@H]3CCCC[C@H]3C2=O)N2C(=O)[C@H]3CCCC[C@H]3C2=O)[C@H]1NC(C)=O [OSC-GCDI(C)] | 10 ± 10 | < 5 | 2210 ± 200 | 1.33 | 0.46 | 2.99 | > 24 | 10.5 | 1.36 | 0.447 | 0.397 | 0.437 | > 100000 | –
7 | CCCCC1CC(=O)N(C(=N[C@H]2CC(C(=O)O)=C[C@@H](OC(CC)CC)[C@@H]2NC(C)=O)N2C(=O)CC(CCCC)C2=O)C1=O (some centres unmarked) [OSC-GCDI(B)] | 90 ± 10 | 40 ± 10 | 72400 ± 1350 | 1.83 | 0.91 | 4.5 | > 24 | > 24 | 7.7 | 2.62 | 0.285 | 0.875 | > 100000 | increase of lipophilicity of GOC via the GCDI modification (based on P) (physchem [5]): 2082 fold
8 | C=CC(=O)O [acrylic acid] | – | – | – | – | – | – | – | – | – | – | – | – | – | pKa [13]: 4.3
9 | CCC(CC)O[C@@H]1C=C(C(=O)O)C[C@H](N=C(N2C(=O)c3ccccc3C2=O)N2C(=O)c3ccccc3C2=O)[C@H]1NC(C)=O [OSC-GCDI(P)] | 30 ± 10 | 10 ± 10 | 2260 ± 400 | 1.61 | 1.01 | 3.88 ± 0.31 | 1.57 | 1.47 | 0.235 | < 0.0167 | 0.0217 | 0.0217 | > 100000 | Effective permeability Pe (in vitro [7]; 500 μM): 3.07 ×10⁻⁶ cm/s; T1/2 ([10]; phosphate buffer pH 2.0, 37 °C): 1.56 h; T1/2 ([10]; phosphate buffer pH 6.5, 37 °C): 1.46 h; GOC released ([11]; BALB/c, 30 min): 37%; GOC released ([11]; BALB/c, 24 h): 68%; half-life at 200 μM ([11]; BALB/c, serum): 0.0217 h; half-life at 100 μM [8, 21]: 0.295 h; CLint (intrinsic clearance) ([8]; microsomes): 78.2; covalent conjugation to HSA [14]: covalent adducts; plasma concentration of the prodrug [15]: below detection limit
10 | CCOC(=O)C1=C[C@@H](OC(CC)CC)[C@H](NC(C)=O)[C@@H](N)C1 [OS-P, Oseltamivir phosphate, reference compound] | – | – | – | 0.22 | -0.42 | 2.27 | – | – | – | – | – | – | – | oral bioavailability ([9]; authors' response to reviewers, no reference given): 80%; oral bioavailability ([9]; in vivo, po): > 80%; half-life ([9]; in vivo): less than 1 day
11 | CCC(CC)O[C@@H]1C=C(C(=O)O)C[C@H](N)[C@H]1NC(C)=O [OSC, oseltamivir carboxylate, reference compound] | 100 ± 10 | < 5 | 1290 ± 250 | – | – | – | – | – | – | – | – | – | > 100000 | –
